The test system of data set [1] is drug-resistant cell lines of Table 4. Briefly: Cell Line Growth Retardation Assay, average maximum effect in resistant cohort. Type of data set: cell-based, Human. To be noted: average maximum growth inhibition over resistant cohort of Table 4; 6 days; up to 1 μM. As to the method: (§1) Cells were seeded at densities of 1,000-5,000 cells per well in 48-well tissue culture plates. After a 24 h rest period, cells were treated with compound at 1 μM, 0.2 μM, 0.04 μM, 0.008 μM, 0.0016 μM, and 0.00032 μM. A group of cells were treated with the vehicle in which the compound was prepared and served as a control. Prior to treatment, cells were counted and this count was used as a baseline for the calculation of growth inhibition. The cells were grown in the presence of compounds for 6 days and were counted on day 6. All cell counting was performed using a Synentec Cellavista plate imager. Growth inhibition was calculated as a ratio of cell population doublings in the presence of compound versus the absence of compound and expressed as the maximum percentage growth inhibition achieved across the range of tested concentrations of the compound (“maximum effect” or “ME”) calculated by fitting curves to data points from each dose-response assay using the Proc NLIN function in SAS for Windows version 9.2 (SAS Institute, Inc.).
(§2) Human cancer cell lines were grouped as “sensitive” or “resistant” to PRMT5 inhibition based on whether their growth was retarded by JNJ-64619178 (i.e., (1S,2R,3R,5R)-3-(2-(2-amino-3-bromoquinolin-7-yl)ethyl)-5-(4-amino-7H-pyrrolo[2,3-d]pyrimidin-7-yl)cyclopentane-1,2-diol) (data not shown; see Table 4). These sensitive and resistant cohorts were interrogated for response to each compound, and ME was calculated for each cell line using the same technique described above. Average MEs for the sensitive and resistant cohorts were calculated as arithmetic means of the group. “A” represents a percent of maximum effect of 60% or greater, “B” represents a percent of maximum effect of 30% to 59%, and “C” represents a percent of maximum effect of 29% or lower.

Data set [2] concerns drug-sensitive cell lines of Table 4. The experiment in a line: Cell Line Growth Retardation Assay, average maximum effect in sensitive cohort. Type of data set: cell-based, Human. To be noted: average maximum growth inhibition over sensitive cohort of Table 4; 6 days; up to 1 μM. As to the method: as §1, §2
The target of a further data set is T1, PRMT5 (Homo sapiens, UniProt O14744).
T1 construct: purchased BPS Biosciences 52002L
The experiment in a line: PRMT5 Enzymatic Inhibition Assay (chemiluminescence immunoassay of histone H4 methylation). It counts as biochemical. To be noted: 1 hour at room temperature; 10 μM to 1 nM. As to the method:
A chemiluminescence immunoassay (CLIA) measuring the amount of PRMT5-mediated histone methylation was performed in a 96-well plate format according to the manufacturer's protocol (BPS Biosciences, Cat #52002L). A 96-well plate precoated with histone H4 peptide was rehydrated prior to use. A master mix containing PRMT5 substrate S-adenosylmethionine, reaction buffer, and purified PRMT5 enzyme was added to create reaction-competent wells. Wells lacking either S-adenosylmethionine substrate or PRMT5 enzyme were created as negative controls. 10 test concentrations, ranging from 100 μM to 10 nM, of the test compound were prepared using a 1:3 serial dilution in dH2O. 5 μL of each test concentration was added into a reaction-competent well. 5 μL of a 1% DMSO aqueous solution lacking inhibitor was added into negative control wells and into a reaction-competent well, creating a positive control well. The final reaction volume in each well was 50 μL, and the final concentration of the test compound in each well ranged from 10 μM to 1 nM. A known inhibitor of PRMT5, EPZ015666, was tested in parallel reaction wells as an assay validation control. The 96-well plate was incubated for 1 hour at room temperature.
Upon completion of the incubation, the reaction supernatant in each well was discarded. Wells were washed with 1×TBST and incubated in blocking buffer for 1 hour. The wells were incubated with a primary antibody recognizing methylated Arg3 residues on Histone H4 for 1 hour. The wells were washed with 1×TBST again and subsequently incubated with an HRP-conjugated secondary antibody for 30 minutes. The wells were washed again with 1×TBST, and equal parts of the chemiluminescence reagents were added into each well. Quantification of luminescence was measured in a plate reader.
Luminescence values were normalized against the positive and negative controls to convert the data into % PRMT5 activity. An inhibitor concentration-dependent curve was plotted against % PRMT5 activity and am IC50 value was determined for each compound.

Data set [3] can be described thus: Caco-2 Assay (Papp A to B). It counts as in vitro ADME. The conditions noted are these: human, pH 7.4. On the procedure: The degree of bi-directional human intestinal permeability for compounds was estimated using a Caco-2 cell permeability assay. Caco-2 cells were seeded onto polyethylene membranes in 96-well plates. The growth medium was refreshed every 4 to 5 days until cells formed a confluent cell monolayer. HBSS with 10 mM HEPES at pH 7.4 was used as the transport buffer. Compounds were tested at 2 μM bi-directionally in duplicate. Digoxin, nadolol and metoprolol were included as standards. Digoxin was tested at 10 μM bi-directionally in duplicate, while nadolol and metoprolol were tested at 2 μM in the A to B direction in duplicate. The final DMSO concentration was adjusted to less than 1% for all experiments. The plate was incubated for 2 hours in a CO2 incubator at 37° C., with 5% CO2 at saturated humidity. After incubation, all wells were mixed with acetonitrile containing an internal standard, and the plate was centrifuged at 4,000 rpm for 10 minutes. 100 μL supernatant was collected from each well and diluted with 100 μL distilled water for LC/MS/MS analysis. Concentrations of test and control compounds in starting solution, donor solution, and receiver solution were quantified by LC/MS/MS, using peak area ratio of analyte/internal standard.
The apparent permeability coefficient Papp (cm/s) was calculated using the equation: Papp=(dCr/dt)×Vr/(A×C0), where dCr/dt is the cumulative concentration of compound in the receiver chamber as a function of time (μM/s); Vr is the solution volume in the receiver chamber (0.075 mL on the apical side, 0.25 mL on the basolateral side); A is the surface area for the transport, which is 0.0804 cm^2 for the area of the monolayer; and Co is the initial concentration in the donor chamber (μM). “A” represents a score of 1 or greater, “B” represents a score of 0.2 to 0.99, and “C” represents a score of less than 0.2.
The efflux ratio was calculated using the equation: Efflux Ratio=Papp(BA)/Papp(AB)
Percent recovery was calculated using the equation: % Recovery=100×[(Vr×Cr)+(Vd×Cd)]/(Vd×C0), where Vd is the volume in the donor chambers, which are 0.075 mL on the apical side and 0.25 mL on the basolateral side; and Cd and Cr are the final concentrations of transport compound in donor and receiver chambers, respectively. Measurement of Compound Metabolic Stability

Data set [4] is described as follows: Measurement of Compound Metabolic Stability in hepatocytes. It counts as in vitro ADME. To be noted: mouse hepatocytes; for hepatocyte CLint at 1 μM: read-out: CLint (μL/min/10^6). As to the method: The metabolic stability of compounds was determined in hepatocytes from human, mice and rats. Compounds were diluted to 5 μM in Williams' Medium E from 10 mM stock solutions. 10 μL of each compound was aliquoted into a well of a 96-well plate and reactions were started by aliquoting 40 μL of a 625,000 cells/mL suspension into each well. The plate was incubated at 37° C. with 5% CO2. At each corresponding time point, the reaction was stopped by quenching with ACN containing internal standards (IS) at a 1:3. Plates were shaken at 500 rpm for 10 min, and then centrifuged at 3,220×g for 20 minutes. Supernatants were transferred to another 96-well plate containing a dilution solution. Supernatants were analyzed by LC/MS/MS. The Half-lives (in minutes) and CLint values (in μL/min/10^6 cells) of example compounds, as measured in mouse hepatocytes, are presented in Table 3. […] For CLint, “A” represents greater than 100 μL/min/10^6 cells, “B” represents 50 to 100 μL/min/10^6 cells, and “C” represents less than 50 μL/min/10^6 cells.
The remaining percent of compound after incubation was calculated using the following equation: % Remaining Compound=Peak Area Ratios of Tested Compound vs. Internal Standard at End Point • Peak Area Ratios of Tested Compound vs. Internal Standard at Start Point Compound half-life and CLint were calculated using the following equations: Ct=C0*e^−k*t(first order kinetics); when […], t1/2=ln 2/k=0.693/k; and CLint=k/(1,000,000 cells/mL) Activity-Guided Selection of Inhibitors

Data set [5] in a line: Water solubility of mesylate salt. The conditions noted are these: in water. Type of data set: physicochemical. On the procedure: The freebase of Compound 15 was suspended in water, and methansulfonic acid was added (32 mg in 2 mL water). The resulting solution was gently heated and sonicated until a homogenous solution resulted, which was frozen and concentrated to dryness on the lyophilzer. The oily solid that resulted was re-dissolved in water, frozen and concentrated in the same manner to give a water soluble white solid (˜3 mg/mL). Further experiments were more easily conducted with this salt (32.0 mg, 91% yield over 2 steps).

As a reminder, the IC50 is the concentration that gives 50% inhibition. For orientation: Papp A→B means how fast a substance crosses the layer from the apical side. Lower therefore signals slow passage. As usually defined, the half-life is how long it takes for the measured level to halve. Read a high half-life as slow decline. Usually solubility stands for the dissolved amount per volume that the medium holds.

T1 sequence (O14744 2-637 limits assumed): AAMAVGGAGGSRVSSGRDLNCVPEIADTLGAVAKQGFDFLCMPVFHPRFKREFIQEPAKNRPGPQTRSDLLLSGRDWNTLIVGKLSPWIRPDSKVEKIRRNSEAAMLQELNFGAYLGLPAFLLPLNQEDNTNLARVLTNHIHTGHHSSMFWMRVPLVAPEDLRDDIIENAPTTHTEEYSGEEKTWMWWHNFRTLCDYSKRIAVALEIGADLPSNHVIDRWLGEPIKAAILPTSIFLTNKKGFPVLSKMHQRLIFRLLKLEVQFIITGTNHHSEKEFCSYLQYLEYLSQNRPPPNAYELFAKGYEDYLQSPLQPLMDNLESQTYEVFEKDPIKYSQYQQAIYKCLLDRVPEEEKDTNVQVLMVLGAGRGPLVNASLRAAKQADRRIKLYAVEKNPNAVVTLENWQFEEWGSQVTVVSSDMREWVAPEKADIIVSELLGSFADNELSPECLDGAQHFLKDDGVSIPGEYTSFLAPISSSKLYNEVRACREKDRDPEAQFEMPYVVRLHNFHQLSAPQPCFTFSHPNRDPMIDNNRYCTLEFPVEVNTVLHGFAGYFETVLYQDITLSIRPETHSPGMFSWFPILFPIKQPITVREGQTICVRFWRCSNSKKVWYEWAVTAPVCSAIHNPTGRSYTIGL
T1 sequence (Q9BQA1 2-342 partner limits assumed): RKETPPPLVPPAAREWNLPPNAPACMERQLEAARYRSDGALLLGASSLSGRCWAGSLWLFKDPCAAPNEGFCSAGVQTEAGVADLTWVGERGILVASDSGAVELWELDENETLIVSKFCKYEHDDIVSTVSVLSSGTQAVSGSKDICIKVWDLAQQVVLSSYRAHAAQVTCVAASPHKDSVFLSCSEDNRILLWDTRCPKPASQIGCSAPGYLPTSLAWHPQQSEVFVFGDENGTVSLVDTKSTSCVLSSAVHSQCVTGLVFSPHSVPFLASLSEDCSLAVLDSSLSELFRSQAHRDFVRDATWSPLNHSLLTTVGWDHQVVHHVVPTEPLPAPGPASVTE

As for `Nc1nc2cc(C3C[C@@]4(CN3)C[C@@H](n3ccc5c(N)ncnc53)[C@H](O)[C@@H]4O)ccc2cc1Br` (single isomer, unassigned) [Compound 8], the “AvgRes ME (%)” value in data set [1] is recorded as “C (a percent of maximum effect of 29% or lower)”. Moreover, the “AvgSens ME (%)” value in data set [2] was “C (a percent of maximum effect of 29% or lower)”. This compound also showed an IC50 against PRMT5 of 101 to 500 nM. In data set [3], this compound returned a Papp A→B at 2 h, 2 μM of less than 0.2 ×10⁻⁶ cm/s.
Consider `Nc1nc2cc(C3C[C@@]4(CN3)C[C@@H](n3ccc5c(Cl)ncnc53)[C@H](O)[C@@H]4O)ccc2cc1Br` (single isomer, unassigned) [Compound 9], for which the “AvgRes ME (%)” value in data set [1] is on record as “C (a percent of maximum effect of 29% or lower)”. The “AvgSens ME (%)” value in data set [2] is on record as “B (a percent of maximum effect of 30% to 59%)”. Besides, the IC50 against PRMT5 is not above 100 nM. This compound also showed a Papp A→B at 2 h, 2 μM in data set [3] of less than 0.2 ×10⁻⁶ cm/s.
As to `Nc1nc2cc(C3C[C@@]4(CO3)C[C@@H](n3ccc5c(N)ncnc53)[C@H](O)[C@@H]4O)ccc2cc1Br` (single isomer, unassigned) [Compound 15], the “AvgRes ME (%)” value in data set [1] is given as “B (a percent of maximum effect of 30% to 59%)”. In addition, in data set [4], the half-life at 1 μM was more than 50 min and the hepatocyte CLint at 1 μM was less than 50 µL/min/1e6 cells. In addition, the “AvgSens ME (%)” value in data set [2] is reported as “A (a percent of maximum effect of 60% or greater)”. Further, the IC50 at PRMT5 is not above 100 nM. In data set [5], the solubility was approximately 3000 µg/mL. In data set [3], this compound gave a Papp A→B at 2 h, 2 μM of less than 0.2 ×10⁻⁶ cm/s.
Take `Nc1nc2cc(C3C[C@@]4(CO3)C[C@@H](n3ccc5c(Cl)ncnc53)[C@H](O)[C@@H]4O)ccc2cc1Br` (stereo partly drawn) [Compound 17]: the “AvgRes ME (%)” value in data set [1] is “B (a percent of maximum effect of 30% to 59%)”. For the same compound, in data set [4], the half-life at 1 μM fell in the range of 15 to 50 min and the hepatocyte CLint at 1 μM was 50 to 100 µL/min/1e6 cells. The “AvgSens ME (%)” value in data set [2] is given as “A (a percent of maximum effect of 60% or greater)”. At PRMT5, this compound displayed an IC50 not above 100 nM. This compound registered a Papp A→B at 2 h, 2 μM in data set [3] of 0.2 to 0.99 ×10⁻⁶ cm/s.
Regarding `Cc1ncnc2c1ccn2[C@@H]1C[C@@]2(CO[C@@H](c3ccc4cc(Br)c(N)nc4c3)C2)[C@@H](O)[C@H]1O` [Compound 19], in data set [1], the “AvgRes ME (%)” value is reported as “B (a percent of maximum effect of 30% to 59%)”. Moreover, in data set [4], the half-life at 1 μM is more than 50 min and the hepatocyte CLint at 1 μM was less than 50 µL/min/1e6 cells. Besides, the “AvgSens ME (%)” value in data set [2] is reported as “A (a percent of maximum effect of 60% or greater)”. Further, at PRMT5, the IC50 is not above 100 nM. The same compound showed a Papp A→B at 2 h, 2 μM in data set [3] not below 1 ×10⁻⁶ cm/s.
Take `Nc1nc2cc([C@H]3C[C@@]4(CO3)C[C@@H](n3ccc5cncnc53)[C@H](O)[C@@H]4O)ccc2cc1Br` [Compound 22]: the “AvgRes ME (%)” value in data set [1] is recorded as “B (a percent of maximum effect of 30% to 59%)”. In addition, in data set [4], the half-life at 1 μM was less than 15 min and the hepatocyte CLint at 1 μM was more than 100 µL/min/1e6 cells. For the same compound, the “AvgSens ME (%)” value in data set [2] was “A (a percent of maximum effect of 60% or greater)”. The compound further displayed an IC50 against PRMT5 not above 100 nM. The Papp A→B at 2 h, 2 μM in data set [3] is not below 1 ×10⁻⁶ cm/s.
Turning to `CNc1ncnc2c1ccn2[C@@H]1C[C@@]2(CO[C@@H](c3ccc4cc(Br)c(N)nc4c3)C2)[C@@H](O)[C@H]1O` [Compound 23], in data set [1], the “AvgRes ME (%)” value was “B (a percent of maximum effect of 30% to 59%)”. Also, in data set [4], the half-life at 1 μM was more than 50 min and the hepatocyte CLint at 1 μM was less than 50 µL/min/1e6 cells. In data set [2], the “AvgSens ME (%)” value was “A (a percent of maximum effect of 60% or greater)”. At PRMT5, this compound yielded an IC50 not above 100 nM. In data set [3], this compound showed a Papp A→B at 2 h, 2 μM of 0.2 to 0.99 ×10⁻⁶ cm/s.
As to `CCNc1ncnc2c1ccn2[C@@H]1C[C@@]2(CO[C@@H](c3ccc4cc(Br)c(N)nc4c3)C2)[C@@H](O)[C@H]1O` [Compound 24], in data set [1], the “AvgRes ME (%)” value is “B (a percent of maximum effect of 30% to 59%)”. In data set [4], the half-life at 1 μM was 15 to 50 min and the hepatocyte CLint at 1 μM fell in the range of 50 to 100 µL/min/1e6 cells. Besides, the “AvgSens ME (%)” value in data set [2] is on record as “A (a percent of maximum effect of 60% or greater)”. On PRMT5, this compound showed an IC50 not above 100 nM. Also, the Papp A→B at 2 h, 2 μM in data set [3] was not below 1 ×10⁻⁶ cm/s.

The record behind these values is patent publication US12583859B2, “PRMT5 inhibitors and uses thereof” (California Institute of Technology, priority 2019, dated 2026).
